Measured values from PMC9917443 (eLife, 2023).

Experiments:
[1] = target: T1, GB1a/2 receptors (Homo sapiens, UniProt O75899+Q9UBS5); test: SRE-luciferase accumulation assay (Gαqi/PLC) in HEK293T-Gαqi cells; conditions: constitutive and GABA-induced FLuc activity
[2] = target: T1, GB1a/2 receptors; test: BRET assay of G protein activation (Gαo-RLuc / Venus-Gγ2) in HEK293T cells; type: cell-based; design: Flag (N); expressed in transfected cells; host or cells: HEK293T cells stably expressing chimeric Gαqi; conditions: GABA or CGP54626, 10 μM
Protocol: We directly tested whether APP17 influences G protein activation by GBRs in transfected HEK293T cells. […] HEK293T cells were transiently transfected with Flag-GB1a, Flag-GB2, Gαo-RLuc, Gβ2, and Venus-Gγ2 plasmids with or without APP695. In order to ensure APP695 binding to GB1a/2 in trans a pool of HEK293T cells expressing APP695 was mixed with a pool of HEK293T cells expressing Flag-GB1a, Flag-GB2, Gαo-RLuc, Gβ2, and Venus-Gγ2. Transfected cells were seeded into 96-well microplates (Greiner Bio-One) at 100,000 cells/well. After 18 hr, cells were washed and coelenterazine h (5 µM, NanoLight Technologies, Prolume Ltd., Pinetop-Lakeside, AZ, USA) added for 5 min. […] BRET ratios were adjusted by subtracting the ratios obtained when RLuc fusion proteins were expressed alone. Each data point represents a technical quadruplicate.

[3] = target: T1, GB1a/2 receptors; test: PKA luminescence assay (R-RLuc-N / C-RLuc-C) of Gαi signaling in HEK293T cells
[4] = test system: mGlu5 receptors; test: Ca^2+ mobilization assay (Calcium 6) in HEK293T cells expressing mGlu5; type: cell-based; conditions: 1 and 10 µM
[5] = test system: GB1a/2 receptor-induced Kir3 currents in HEK293T cells; test: Kir3 K^+ currents in transfected HEK293T cells (patch-clamp); type: cell-based
[6] = test system: spontaneous neuronal activity in the auditory cortex; test: two-photon Ca^2+ imaging of auditory cortex in anesthetized mice; conditions: 5 µM perfused over cortex; peptides 60 min, baclofen 15 min
[7] = test system: GBR-activated K^+ currents in cultured hippocampal neurons; test: K^+ currents in cultured hippocampal neurons (patch-clamp); type: cell-based, mouse
Protocol: APP17 signaling through native GBRs may depend on protein-protein interactions that are not preserved in the membrane preparations used for the [^35S]GTPγS binding assay. Therefore, we tested whether APP17 influences GBR-mediated Gβγ signaling to K^+ channels in cultured hippocampal neurons using patch-clamp electrophysiology, which preserves the native environment of receptors ([Schuler et al., 2001]; [Vigot et al., 2006]). […] . Neuronal cultures and HEK293T cells were prepared as described ([Dinamarca et al., 2019]). Coverslips with hippocampal neurons (DIV 12–15) or HEK293T cells were transferred to a chamber containing a low-K^+ bath solution (in mM): 145 NaCl, 4 KCl, 5 HEPES, 5.5 D-glucose, 1 MgCl2, and 1.8 CaCl2 (pH 7.4 adjusted with NaOH). Recordings were performed at room temperature using borosilicate pipettes of 3–5 MΩ resistance tips, filled with K-gluconate-based pipette solution (in mM): 150 K-gluconate, 1.1 EGTA, 10 HEPES, 10 Tris-phosphocreatine, 0.3 NaGTP, and 4 MgATP (pH 7.2 adjusted with KOH). Upon achieving whole-cell access, cells were held in voltage-clamp mode at −70 mV (with no correction for liquid junction potential) and baclofen-induced K^+ currents were induced in a high-K^+ bath solution (in mM): 120 NaCl, 25 KCl, 5 HEPES, 5.5 D-glucose, 1 MgCl2, and 1.8 CaCl2 (pH 7.4 adjusted with NaOH). […] Schaffer collaterals were stimulated at 0.1 Hz with brief current pulses via bipolar Pt/Ir wires. Evoked EPSCs were recorded at –60 mV with a Cs^+-based intracellular solution. Baclofen and peptides were bath applied in standard ACSF at room temperature. We recorded mEPSCs in primary neuronal cultures established from embryonic (E15–17) murine hippocampus at DIV13–16 in the presence of 0.5 μM TTX at room temperature ([Dinamarca et al., 2019]). APP17 (250 nM) and (R)-baclofen (30 μM) were applied via superfusion. Template matching with pClamp 10 software (Molecular Devices) was used to detect individual mEPSCs.

[8] = target: T1, GB1a/2 receptors; test: inter-subunit FRET conformational sensor (HA-GB1a-ACP / Flag-SNAP-GB2) in HEK293T cells; conditions: for Fig. 2c value, 10mM GABA / Fig. 2c value, Basal: + Vehicle Basal given as 100; for Fig. 2c value, Basal: Basal (no GABA)
[9] = test system: GB1a/2 receptors in HEK293T cells; test: APP17-TMR binding / displacement at GB1a/2 receptors in HEK293T cells; conditions: 10 μM peptide
Protocol: Transfected HEK293T cells expressing Flag-GB1a and Flag-GB2 were seeded into 96-well microplates (Greiner Bio-One, Kremsmünster, Austria) at 50,000 cells/well. After 18 hr, peptides were mixed with conditioned medium at the following final concentrations: APP17-TMR (1 µM) with either APP17 (10 µM), sc-APP17 (10 µM), or PBS (vehicle); sc-APP17-TMR (1 µM) in PBS was used as a negative control. After removal of medium, peptide mixes were added to the wells and cells incubated in the dark for 1 hr at room temperature. After removal of the peptides, PBS with MgCl2 and CaCl2 (Sigma-Aldrich) was added to the wells. TMR fluorescence was monitored with a Spark microplate reader (Tecan Group, Männerdorf, Switzerland) using a monochromator (Excitation 544 nm, […] bandwidth; detection […], 25 nm bandwidth). TMR fluorescence was determined after subtraction of the sc-APP17-TMR fluorescence measured at HEK293T cells transfected with pCI plasmid.

[10] = target: T1, GB1a/2 receptors; test: Ca^2+ mobilization assay (Calcium 6) in HEK293T cells expressing GB1a/2; type: cell-based; design: Flag (N); expressed in transfected cells; host or cells: HEK293T cells stably expressing chimeric Gαqi; conditions: 1 or 10 μM

T1 sequence (Q9UBS5 15-961 limits assumed): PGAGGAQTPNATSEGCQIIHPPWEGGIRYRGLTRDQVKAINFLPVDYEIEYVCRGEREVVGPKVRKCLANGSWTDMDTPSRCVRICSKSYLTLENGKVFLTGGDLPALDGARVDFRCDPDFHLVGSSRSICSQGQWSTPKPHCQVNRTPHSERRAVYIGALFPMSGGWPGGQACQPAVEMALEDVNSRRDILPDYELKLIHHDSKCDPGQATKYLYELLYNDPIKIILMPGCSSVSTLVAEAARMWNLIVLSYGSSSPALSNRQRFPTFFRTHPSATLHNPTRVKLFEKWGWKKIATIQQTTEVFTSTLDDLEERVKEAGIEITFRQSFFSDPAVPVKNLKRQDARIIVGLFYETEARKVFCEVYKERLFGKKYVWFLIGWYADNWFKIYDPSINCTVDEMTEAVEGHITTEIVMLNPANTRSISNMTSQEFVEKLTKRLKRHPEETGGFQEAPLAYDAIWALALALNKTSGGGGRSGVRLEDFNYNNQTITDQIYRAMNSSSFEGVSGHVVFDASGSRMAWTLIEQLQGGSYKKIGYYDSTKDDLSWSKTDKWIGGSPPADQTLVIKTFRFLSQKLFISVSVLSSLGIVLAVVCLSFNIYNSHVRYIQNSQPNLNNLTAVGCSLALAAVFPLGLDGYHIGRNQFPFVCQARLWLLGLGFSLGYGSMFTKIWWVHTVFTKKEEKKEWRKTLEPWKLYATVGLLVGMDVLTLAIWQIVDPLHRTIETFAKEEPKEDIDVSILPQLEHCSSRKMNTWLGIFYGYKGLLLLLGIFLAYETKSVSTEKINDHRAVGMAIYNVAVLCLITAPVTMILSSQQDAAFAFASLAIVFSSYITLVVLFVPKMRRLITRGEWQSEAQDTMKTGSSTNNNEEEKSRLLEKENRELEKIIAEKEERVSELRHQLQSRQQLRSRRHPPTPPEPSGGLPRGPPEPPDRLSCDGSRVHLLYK
T1 sequence (O75899 42-941 partner): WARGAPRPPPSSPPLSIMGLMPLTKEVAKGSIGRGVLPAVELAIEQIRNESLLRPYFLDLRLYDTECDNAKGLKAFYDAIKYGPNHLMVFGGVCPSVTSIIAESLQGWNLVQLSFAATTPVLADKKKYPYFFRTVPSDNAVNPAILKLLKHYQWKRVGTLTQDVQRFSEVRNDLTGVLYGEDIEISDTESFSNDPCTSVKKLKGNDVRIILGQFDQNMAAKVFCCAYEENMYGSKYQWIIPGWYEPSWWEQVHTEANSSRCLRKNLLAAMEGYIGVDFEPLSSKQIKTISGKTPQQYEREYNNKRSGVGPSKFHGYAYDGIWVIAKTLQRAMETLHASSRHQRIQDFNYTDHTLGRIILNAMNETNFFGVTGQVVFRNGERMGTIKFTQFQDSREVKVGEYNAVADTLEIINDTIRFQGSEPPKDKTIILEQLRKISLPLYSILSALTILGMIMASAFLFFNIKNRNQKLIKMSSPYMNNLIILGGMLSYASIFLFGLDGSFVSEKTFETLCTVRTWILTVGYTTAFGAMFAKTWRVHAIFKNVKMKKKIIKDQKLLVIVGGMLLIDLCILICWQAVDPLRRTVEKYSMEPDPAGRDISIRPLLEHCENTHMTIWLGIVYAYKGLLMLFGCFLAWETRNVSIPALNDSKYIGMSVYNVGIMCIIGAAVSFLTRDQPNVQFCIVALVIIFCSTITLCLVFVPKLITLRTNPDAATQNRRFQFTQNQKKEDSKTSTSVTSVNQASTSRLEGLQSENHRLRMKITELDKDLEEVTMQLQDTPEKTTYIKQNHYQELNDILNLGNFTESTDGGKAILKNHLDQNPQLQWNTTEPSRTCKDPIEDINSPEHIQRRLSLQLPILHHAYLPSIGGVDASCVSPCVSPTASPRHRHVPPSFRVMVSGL

For `C[C@H](NC[C@H](O)CP(=O)(O)CC1CCCCC1)c1ccc(Cl)c(Cl)c1` [CGP54626], the “block of receptor activity (in words)” value [1] was “blocked constitutive and GABA-induced receptor activity”, the “BRET change by receptor ligand (in words)” value [2] was “increased BRET above baseline” and the “luminescence change by receptor ligand (in words)” value ([3]; GABA 10 μM or CGP54626 10 μM, forskolin) was “decreased luminescence below baseline”.

For `N[C@H](C(=O)O)c1cc(O)cc(O)c1` [DHPG], the “intracellular Ca^2+ mobilization (in words)” value [4] was “concentration-dependent increase in intracellular Ca^2+”.

For Ac-DWGADTVSGDGYDAWDD-NH2 [sc-APP17], the “GABA-induced Kir3 currents in presence of peptide (in words)” value ([5]; 5 µM GABA) was “nor did the peptides alter K^+ currents in the presence of 5 µM GABA”, the “Kir3 K^+ currents evoked by compound alone (in words)” value ([5]; transfected HEK293T cells) was “did not trigger K^+ currents” and the “spontaneous Ca^2+ transients (in words)” value [6] was “no significant effect compared to ACSF”. For the same compound, the “baclofen-induced K^+ currents in presence of peptide (in words)” value ([7]; 5 µM peptide + 5 µM baclofen) was “elicited currents of similar amplitudes as baclofen alone”, the “K^+ currents evoked by compound alone (in words)” value ([7]; 5 µM, -70 mV) was “did not elicit any currents” and the “Fig. 2c value, 10mM GABA” value ([8]; 1 µM peptide with 10mM GABA, replicate 2) was 29.41. For the same compound, the “Fig. 2c value, 10mM GABA” value ([8]; 1 µM peptide with 10mM GABA, replicate 3) was 73.18, the “Fig. 2c value, 10mM GABA” value ([8]; 1 µM peptide with 10mM GABA, replicate 4) was 69.99 and the “Fig. 2c value, 10mM GABA” value ([8]; 1 µM peptide with 10mM GABA, replicate 5) was 51.73. The “Fig. 2c value, 10mM GABA” value ([8]; 1 µM peptide with 10mM GABA, replicate 6) was 86.53, the “Fig. 2c value, Basal” value ([8]; 1 µM peptide, replicate 1) was 88.34 and the “Fig. 2c value, Basal” value ([8]; 1 µM peptide, replicate 2) was 87.73. For the same compound, the “Fig. 2c value, Basal” value ([8]; 1 µM peptide, replicate 3) was 107.5, the “Fig. 2c value, Basal” value ([8]; 1 µM peptide, replicate 4) was 102.7 and the “Fig. 2c value, Basal” value ([8]; 1 µM peptide, replicate 5) was 121. For the same compound, the “Fig. 2c value, Basal” value ([8]; 1 µM peptide, replicate 6) was 65.57, the “Fig. 2c value, 10mM GABA” value ([8]; 10 µM peptide with 10mM GABA, replicate 1) was 53.02 and the “Fig. 2c value, 10mM GABA” value ([8]; 10 µM peptide with 10mM GABA, replicate 2) was 53.95. For the same compound, the “Fig. 2c value, 10mM GABA” value ([8]; 10 µM peptide with 10mM GABA, replicate 3) was 60.06, the “Fig. 2c value, 10mM GABA” value ([8]; 10 µM peptide with 10mM GABA, replicate 4) was 60.44 and the “Fig. 2c value, 10mM GABA” value ([8]; 10 µM peptide with 10mM GABA, replicate 6) was 23.67. The “Fig. 2c value, Basal” value ([8]; 10 µM peptide, replicate 1) was 90.75, the “Fig. 2c value, Basal” value ([8]; 10 µM peptide, replicate 2) was 69.76 and the “Fig. 2c value, Basal” value ([8]; 10 µM peptide, replicate 3) was 95.95. The “Fig. 2c value, Basal” value ([8]; 10 µM peptide, replicate 4) was 91.68, the “Fig. 2c value, Basal” value ([8]; 10 µM peptide, replicate 5) was 104.2 and the “Fig. 2c value, Basal” value ([8]; 10 µM peptide, replicate 6) was 90.96. The “FRET in the presence of 10 mM GABA (in words)” value ([8]; 1 or 10 μM peptide + 10 mM GABA) was “no significant differences in FRET”, the “FRET, basal, peptide alone (in words)” value ([8]; 1 or 10 μM peptide without GABA) was “no significant changes in FRET” and the “displacement of 1 μM APP17-TMR from GB1a/2 receptors (in words)” value [9] was “not sc-APP17 displaced 1 μM APP17-TMR from GB1a/2 receptors”. The “GABA-mediated PKA inactivation in presence of peptide (in words)” value ([3]; 10 μM peptide) was “GABA-mediated PKA inactivation was comparable”, the “effect of peptide alone on luminescence/receptor activity (in words)” value ([3]; 10 μM peptide) was “no agonistic, inverse agonistic, or antagonistic properties” and the “receptor activity with APP695 in cis (in words)” value ([3]; peptide, APP695 in cis) was “did not significantly alter GB1/2 receptor activity”. For the same compound, the “intracellular Ca^2+ mobilization (in words)” value [10] was “did not increase intracellular Ca^2+”.
